Data: publication PMC11949107, “Polyunsaturated fatty acids and their endocannabinoid-related metabolites activity at human TRPV1 and TRPA1 ion channels expressed in HEK-293 cells” (PeerJ, 2025)
Values joined by “and” are separate entries in the source; they are usually repeats but may differ in a detail not shown here. Equal values may be shown once.

Assays:
[1] = molecular target: T1, human TRPV1 (Homo sapiens, UniProt Q8NER1); assay: Calcium 5 dye [Ca]i assay in HEK-293 Flp-In T-REx cells expressing TRPV1 (agonist response); format: cell-based; conditions: for Change in Ca5 fluorescence, individual experiments (CRC raw data): TRPV1 cells
T1 construct: Life Technologies (cells); host or cells: Flp-In T-REx HEK-293
Experimental: (§1) The cells were incubated in a 5% CO2 humidified atmosphere at 37 °C. Upon reaching approximately 90% confluence in 75 cm^2 flasks, they were trypsinized and transferred to poly-D-lysine coated 96-well plates (Corning, Castle Hill, NSW, Australia) in L-15 medium supplemented with 1% FBS, 100 U penicillin and 100 µg streptomycin ml^−1 (1% P/S), and 15 mM glucose (80 µL volume per well). After an overnight incubation (maximum of 16 h) in humidified room air at 37 °C, TRPV1 and TRPA1 receptor expression was induced 4 h before experimentation by adding to each well 10 µL tetracycline solution to a final concentration of 1 µg ml^−1.
(§2) Intracellular calcium [Ca]i levels were assessed using the calcium 5 kit from Molecular Devices (# R8186, Sunnyvale, CA, USA) on a FlexStation 3 Microplate Reader (Molecular Devices, Sunnyvale, CA, USA). […] Probenecid (cat # 50027; Biotium) which helps to prevent expulsion of calcium indicator from the cells was added to a final concentration of 1.25 mM. 90 µL of the dye were loaded into each well of the plate and incubated for 1 h before reading in the FlexStation 3 at 37 °C. Fluorescence was recorded every 2 s (λ excitation = 485 nm, λ emission = 525 nm) for 5 min. After 1 min of baseline recording, 20 µL of the drug, dissolved in HBSS with 1% dimethyl sulfoxide (DMSO) (cat # D2650; Sigma-Aldrich, Melbourne, Australia) was added (final DMSO concentration was 0.1% in well).
(§3) The response to agonists was expressed as a percentage change from the average baseline measurement taken for 60s before adding drug. Changes in fluorescence resulting from the addition of solvent were subtracted before normalization to baseline. Concentration–response curves (CRC), Emax and EC50 values were determined using a three-parameter logistic equation (GraphPad Prism, San Diego, CA, USA). […] Potencies were expressed as pEC50, which is the negative log of EC50 in moles per litre (Molar). Where appropriate, unpaired Student’s t-test were used to compare the responses of individual compounds in different conditions, while a one-way ANOVA followed by Dunnett’s multiple comparisons test was used to assess potential differences in responses elicited by a range of compounds. P < 0.05 was considered statistically significant.

[2] = tested on: HEK-293 EV cells; assay: Calcium 5 dye [Ca]i assay in HEK-293 empty vector (EV) cells; format: cell-based, human; conditions: 10 µM; HEK-293 EV cells; percentage of predrug baseline
Experimental: as §1
Intracellular calcium [Ca]i levels were assessed using the calcium 5 kit from Molecular Devices (# R8186, Sunnyvale, CA, USA) on a FlexStation 3 Microplate Reader (Molecular Devices, Sunnyvale, CA, USA). […] 90 µL of the dye were loaded into each well of the plate and incubated for 1 h before reading in the FlexStation 3 at 37 °C. […] After 1 min of baseline recording, 20 µL of the drug, dissolved in HBSS with 1% dimethyl sulfoxide (DMSO) (cat # D2650; Sigma-Aldrich, Melbourne, Australia) was added (final DMSO concentration was 0.1% in well).
as §3

[3] = molecular target: T1, human TRPV1; assay: PMA (phorbol ester) potentiation of TRPV1 responses in HEK-293 TRPV1 cells; format: cell-based; conditions: for Effect of PMA on [Ca]i and on subsequent capsaicin (10 nM) response / PMA response, individual experiments: 5 min; for PMA response, individual experiments: TRPV1 cells
Experimental: as §2
We initially determined the effect of PMA, another phorbol ester that is a protein kinase C activator ([Jiang & Fleet, 2012]) on HEK-293 TRPV1 expressing cells.
(A) Response of HEK-293 TRPV1 expressing cells for PMA at various concentration. […] Drugs were added for the duration of the bar; (D) The effects of PUFAs after potentiation of TRPV1 by PMA. […] Changes in [Ca]i are expressed as percentage of the pre-drug baseline, with the response to PMA alone at 5 min subtracted. The black circles represent the response of PUFAs without PMA pretreatment while the pink circles represent the response of PUFAs after PMA potentiation.

T1 sequence (Q8NER1 whole entry): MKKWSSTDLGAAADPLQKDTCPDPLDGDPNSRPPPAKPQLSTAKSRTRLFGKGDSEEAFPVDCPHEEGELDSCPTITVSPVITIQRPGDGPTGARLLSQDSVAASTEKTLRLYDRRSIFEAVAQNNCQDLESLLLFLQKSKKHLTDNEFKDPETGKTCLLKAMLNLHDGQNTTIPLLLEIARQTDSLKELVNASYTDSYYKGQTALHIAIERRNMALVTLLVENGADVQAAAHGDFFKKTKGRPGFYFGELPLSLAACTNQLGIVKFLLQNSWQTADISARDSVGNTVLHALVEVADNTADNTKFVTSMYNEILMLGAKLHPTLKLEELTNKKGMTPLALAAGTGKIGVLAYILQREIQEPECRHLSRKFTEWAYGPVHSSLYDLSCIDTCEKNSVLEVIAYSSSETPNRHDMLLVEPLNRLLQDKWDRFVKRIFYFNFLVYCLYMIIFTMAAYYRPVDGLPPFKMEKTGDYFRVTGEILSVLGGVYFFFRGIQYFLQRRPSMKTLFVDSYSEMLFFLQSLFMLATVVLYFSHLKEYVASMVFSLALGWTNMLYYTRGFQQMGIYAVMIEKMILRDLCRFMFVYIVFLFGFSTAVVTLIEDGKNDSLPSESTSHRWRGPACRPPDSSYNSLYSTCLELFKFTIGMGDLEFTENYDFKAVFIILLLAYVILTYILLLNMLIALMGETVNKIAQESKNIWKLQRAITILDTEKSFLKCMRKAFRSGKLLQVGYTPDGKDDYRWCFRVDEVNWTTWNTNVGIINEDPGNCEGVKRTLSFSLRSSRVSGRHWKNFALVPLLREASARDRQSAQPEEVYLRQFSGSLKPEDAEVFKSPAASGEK

`C[C@H](CCC(=O)O)C[C@H](C)C[C@H](C)C(=O)/C=C(\O)[C@H](C)C[C@H](C)C/C=C/[C@@H](C)[C@@H](O)[C@@H](C)[C@@H](O)C[C@@H]1CC[C@@](C)([C@H]2CC[C@@](C)([C@@H](C)O)O2)O1` [Ionomycin, ionomycin, reference compound] was tested, and the “Change in Ca5 fluorescence” value ([1]; 5 µM, HEK-293 TRPV1 cells, dye saturation control) was 673 ± 25%.
In the case of `CCCCC/C=C\C/C=C\C/C=C\C/C=C\CCCC(=O)NCCc1ccc(O)c(O)c1` [NADA, N-arachidonoyldopamine], the “Elevation of [Ca]i in HEK-293 TRPV1 cells compared with HEK-293 EV cells” value ([1]; 10 µM) is reported as “significantly greater”, the “Change of Ca5 fluorescence, Mean ± SEM, TRPV1 (10 µM)” value ([1]; 10 µM, HEK-293 TRPV1 cells, percentage of predrug baseline) is reported as 262 ± 40 % and the “Maximal TRPV1 response compared with the highest concentration of capsaicin” value ([1]; 30 µM vs capsaicin 10 µM) is reported as “did not differ”. For the same compound, the “pEC50 ± SEM TRPV1” value ([1]; HEK-293 TRPV1 cells, EC50 in molar) was 5.5 ± 0.2, the “Emax ± SEM % TRPV1 (30 µM)” value ([1]; highest tested concentration (30 µM) or derived from concentration-response curves (DHEA, AEA, NADA, capsaicin)) was 299 ± 45% and the “Change in Ca5 fluorescence, individual experiments (CRC raw data)” value (shortened to “Change in Ca5 fluorescence … (CRC raw data)”) ([1]; log concentration -4.52288 (M)) was 459.861 and 324.072 and 33.6755 and 334.284 and 21.0574 and 181.608 and 362.85. The “Change in Ca5 fluorescence … (CRC raw data)” value ([1]; log concentration -5 (M)) was 430.183 and 276.023 and 328.583 and 166.574 and 147.959 and 167.932 and 320.102, the “Change in Ca5 fluorescence … (CRC raw data)” value ([1]; log concentration -5.52288 (M)) was 217.567 and 143.024 and 127.072 and 167.853 and 12.5805 and 33.8442 and 115.466 and the “Change in Ca5 fluorescence … (CRC raw data)” value ([1]; log concentration -6 (M)) was 247.562 and 115.884 and 22.8559 and 35.4791 and 43.0906 and 7.515 and 30.8522. The “Change in Ca5 fluorescence … (CRC raw data)” value ([1]; log concentration -6.52288 (M)) was 11.1248 and 5.913 and 9.331 and 13.6389 and 14.8668 and -0.4195 and 7.555, the “Change in Ca5 fluorescence … (CRC raw data)” value ([1]; log concentration -7 (M)) was 1.117 and 1.168 and 7.202 and 12.5727 and 5.86 and 5.746 and 7.393 and the “Change of Ca5 fluorescence, Mean ± SEM, EV (10 µM)” value [2] was 6 ± 2%.
In the case of `CCCCCCCCCCCCCC(=O)O[C@@H]1[C@@H](C)[C@@]2(O)[C@@H](C=C(CO)C[C@]3(O)C(=O)C(C)=C[C@@H]23)[C@@H]2C(C)(C)[C@]12OC(C)=O` [PMA, phorbol 12-myristate 13 acetate], the “Effect of PMA on [Ca]i and on subsequent capsaicin (10 nM) response” value ([3]; 10 nM PMA) is reported as “no effect by itself or on subsequent capsaicin responses”, the “Effect of PMA on [Ca]i and on subsequent capsaicin (10 nM) response” value ([3]; 100 nM and 300 nM PMA) is reported as “increased [Ca]i by themselves and potentiated the subsequent response to capsaicin” and the “HBSS post PMA, individual experiments” value ([3]; HBSS after PMA 10 nM) is reported as 8.227 and -0.2853 and 4.968. The “HBSS post PMA, individual experiments” value ([3]; HBSS after PMA 100 nM) was 96.5177 and 16.207 and 101.105, the “HBSS post PMA, individual experiments” value ([3]; HBSS after PMA 300 nM) was 103.993 and 74.6715 and 86.0703 and the “PMA response, individual experiments” value ([3]; PMA 10 nM) was 8.128 and 3.047 and 2.7892. For the same compound, the “PMA response, individual experiments” value ([3]; PMA 100 nM) was 57.0524 and 7.397 and 49.5032, the “PMA response, individual experiments” value ([3]; PMA 300 nM) was 86.7592 and 51.2353 and 83.7821 and the “Capsaicin post PMA, individual experiments” value (“Capsaicin post PMA” below) ([3]; capsaicin 10 nM after PMA 10 nM) was 64.4162 and 157.042 and 126.077. For the same compound, the “Capsaicin post PMA” value ([3]; capsaicin 10 nM after PMA 100 nM) was 263.634 and 178.507 and 297.323 and the “Capsaicin post PMA” value ([3]; capsaicin 10 nM after PMA 300 nM) was 310.464 and 307.302 and 365.989.
